Laboratory results reported in patent publication US10442803B2, “Tricyclic heterocycles as bet protein inhibitors” (Incyte Corporation, priority 2013, dated 2019).
Structures can show the parent of a compound that is named as a salt.

system: KMS.12.BM cells; test: KMS.12.BM cell viability assay; assay type: cell-based; conditions: 72 h; KMS.12.BM human myeloma cells, 3 days, Cell Titer-GLO ATP quantitation; read-out: KMS cellular IC50
Summary of the method: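 IC50 derived from luminescent ATP quantitation (Cell Titer-GLO) of viable cells after 3-day compound treatment. KMS.12.BM human myeloma line seeded at 5000 cells/well in RPMI with 10% FBS.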

SMILES | IC50 [nM]
Cc1nnc2ccc3c(cc(-c4ccn(C)n4)n3Cc3cc(Cl)cc(CN4CCC4)c3)n12 [Example 185, 6-[3-(Azetidin-1-ylmethyl)-5-chlorobenzyl]-1-methyl-7-(1-methyl-1H-pyrazol-3-yl)-6H-pyrrolo[2,3-e][1,2,4]triazolo[4,3-a]pyridine tris(trifluoroacetate) salt] | ≤ 1000
CCn1ccc(-c2cc3c(ccc4nnc(C)n43)n2Cc2cc(Cl)cc(CN3CCC3)c2)n1 [Example 188, 6-(3-(Azetidin-1-ylmethyl)-5-chlorobenzyl)-7-(1-ethyl-1H-pyrazol-3-yl)-1-methyl-6H-pyrrolo[2,3-e][1,2,4]triazolo[4,3-a]pyridine tris(trifluoroacetate) salt] | ≤ 1000
CCn1ccc(-c2cc3c(ccc4nnc(C)n43)n2Cc2cc(Cl)cc(CN3CCCC3)c2)n1 [Example 189, 6-(3-Chloro-5-(pyrrolidin-1-ylmethyl)benzyl)-7-(1-ethyl-1H-pyrazol-3-yl)-1-methyl-6H-pyrrolo[2,3-e][1,2,4]triazolo[4,3-a]pyridine tris(trifluoroacetate) salt] | ≤ 1000
Cc1nnc2ccc3c(cc(-c4ccn(C)n4)n3Cc3cc(Cl)cc(CN4CCCC4)c3)n12 [Example 190, 6-[3-Chloro-5-(pyrrolidin-1-ylmethyl)benzyl]-1-methyl-7-(1-methyl-1H-pyrazol-3-yl)-6H-pyrrolo[2,3-e][1,2,4]triazolo[4,3-a]pyridine bis(trifluoroacetate) salt] | ≤ 1000
Cc1nnc2ccc3c(cc(-c4ccn(C)n4)n3Cc3cc(Cl)cc(CN(C)C)c3)n12 [Example 191, 1-(3-Chloro-5-{[1-methyl-7-(1-methyl-1H-pyrazol-3-yl)-6H-pyrrolo[2,3-e][1,2,4]triazolo[4,3-a]pyridin-6-yl]methyl}phenyl)-N,N-dimethylmethanamine bis(trifluoroacetate) salt] | ≤ 1000
Cc1nnc2ccc3c(cc(-c4ccn(C)n4)n3Cc3cc(Cl)cc(CN4CCOCC4)c3)n12 [Example 192, 6-[3-Chloro-5-(morpholin-4-ylmethyl)benzyl]-1-methyl-7-(1-methyl-1H-pyrazol-3-yl)-6H-pyrrolo[2,3-e][1,2,4]triazolo[4,3-a]pyridine bis(trifluoroacetate) salt] | ≤ 1000
Cc1nnc2ccc3c(cc(C4=NCCO4)n3Cc3cccc(Cl)c3)n12 [Example 193, 6-(3-Chlorobenzyl)-7-(4,5-dihydro-1,3-oxazol-2-yl)-1-methyl-6H-pyrrolo[2,3-e][1,2,4]triazolo[4,3-a]pyridine] | ≤ 1000
Cc1nnc2ccc3c(cc(-c4ncco4)n3Cc3cccc(Cl)c3)n12 [Example 194, 6-(3-Chlorobenzyl)-1-methyl-7-(1,3-oxazol-2-yl)-6H-pyrrolo[2,3-e][1,2,4]triazolo[4,3-a]pyridine trifluoroacetate salt] | ≤ 1000
Cc1nnc2ccc3c(cc(-c4ncco4)n3Cc3cc(Cl)cc(CN4CCC4)c3)n12 [Example 195, 6-[3-(Azetidin-1-ylmethyl)-5-chlorobenzyl]-1-methyl-7-(1,3-oxazol-2-yl)-6H-pyrrolo[2,3-e][1,2,4]triazolo[4,3-a]pyridine bis(trifluoroacetate) salt] | ≤ 1000
Cc1nnc2ccc3c(cc(-c4ncco4)n3Cc3cc(Cl)cc(CN4CC(C)(C)C4)c3)n12 [Example 196, 6-{3-Chloro-5-[(3,3-dimethylazetidin-1-yl)methyl]benzyl}-1-methyl-7-(1,3-oxazol-2-yl)-6H-pyrrolo[2,3-e][1,2,4]triazolo[4,3-a]pyridine bis(trifluoroacetate) salt] | ≤ 1000
Cc1nnc2ccc3c(cc(-c4ncco4)n3Cc3cc(Cl)cc(CN4CCCC4)c3)n12 [Example 197, 6-[3-Chloro-5-(pyrrolidin-1-ylmethyl)benzyl]-1-methyl-7-(1,3-oxazol-2-yl)-6H-pyrrolo[2,3-e][1,2,4]triazolo[4,3-a]pyridine bis(trifluoroacetate) salt] | ≤ 1000
Cc1nnc2ccc3c(cc(-c4ncco4)n3Cc3cc(Cl)cc(CN4CC(O)C4)c3)n12 [Example 198, 1-(3-Chloro-5-{[1-methyl-7-(1,3-oxazol-2-yl)-6H-pyrrolo[2,3-e][1,2,4]triazolo[4,3-a]pyridin-6-yl]methyl}benzyl)azetidin-3-ol bis(trifluoroacetate) salt] | ≤ 1000
Cc1cc2c(cc(Nc3cc[nH]n3)c3nnc(C)n32)n1Cc1ccccc1 [Example 200, 6-Benzyl-1,7-dimethyl-N-1H-pyrazol-3-yl-6H-pyrrolo[2,3-e][1,2,4]triazolo[4,3-a]pyridin-4-amine tris(trifluoroacetate) salt] | ≤ 1000
Cc1cc2c(cc(Nc3ncccn3)c3nnc(C)n32)n1Cc1ccccc1 [Example 201, 6-Benzyl-1,7-dimethyl-N-pyrimidin-2-yl-6H-pyrrolo[2,3-e][1,2,4]triazolo[4,3-a]pyridin-4-amine tris(trifluoroacetate) salt] | ≤ 1000
Cc1cc2c(cc(Nc3ccn(C)n3)c3nnc(C)n32)n1Cc1ccccc1 [Example 202, 6-Benzyl-1,7-dimethyl-N-(1-methyl-1H-pyrazol-3-yl)-6H-pyrrolo[2,3-e][1,2,4]triazolo[4,3-a]pyridin-4-amine tris(trifluoroacetate) salt] | ≤ 1000
Cc1cc2c(cc(Nc3nc4ccccc4o3)c3nnc(C)n32)n1Cc1ccccc1 [Example 203, N-1,3-Benzoxazol-2-yl-6-benzyl-1,7-dimethyl-6H-pyrrolo[2,3-e][1,2,4]triazolo[4,3-a]pyridin-4-amine bis(trifluoroacetate) salt] | ≤ 1000
Cc1cc2c(cc(O)c3nnc(C)n32)n1Cc1ccccc1 [Example 204, 6-Benzyl-1,7-dimethyl-6H-pyrrolo[2,3-e][1,2,4]triazolo[4,3-a]pyridin-4-ol trifluoroacetate salt] | 1000 to 10000
Cc1cc2c(cc(Nc3nc4ccccc4[nH]3)c3nnc(C)n32)n1Cc1ccccc1 [Example 205, N-1H-Benzimidazol-2-yl-6-benzyl-1,7-dimethyl-6H-pyrrolo[2,3-e][1,2,4]triazolo[4,3-a]pyridin-4-amine trifluoroacetate salt] | ≤ 1000
Cc1cc2c(cc(NC3CCNCC3)c3nnc(C)n32)n1Cc1ccccc1 [Example 206, 6-Benzyl-1,7-dimethyl-N-piperidin-4-yl-6H-pyrrolo[2,3-e][1,2,4]triazolo[4,3-a]pyridin-4-amine] | ≤ 1000
Cc1cc2c(cc(NC3CCN(C)CC3)c3nnc(C)n32)n1Cc1ccccc1 [Example 207, 6-Benzyl-1,7-dimethyl-N-(1-methylpiperidin-4-yl)-6H-pyrrolo[2,3-e][1,2,4]triazolo[4,3-a]pyridin-4-amine] | ≤ 1000
Cc1cc2c(cc(NCCN3CCOCC3)c3nnc(C)n32)n1Cc1ccccc1 [Example 208, 6-Benzyl-1,7-dimethyl-N-(2-morpholin-4-ylethyl)-6H-pyrrolo[2,3-e][1,2,4]triazolo[4,3-a]pyridin-4-amine] | 1000 to 10000
COCCNc1cc2c(cc(C)n2Cc2ccccc2)n2c(C)nnc12 [Example 209, 6-Benzyl-N-(2-methoxyethyl)-1,7-dimethyl-6H-pyrrolo[2,3-e][1,2,4]triazolo[4,3-a]pyridin-4-amine] | 1000 to 10000
Cc1cc2c(cc(NCCO)c3nnc(C)n32)n1Cc1ccccc1 [Example 210, 2-[(6-Benzyl-1,7-dimethyl-6H-pyrrolo[2,3-e][1,2,4]triazolo[4,3-a]pyridin-4-yl)amino]ethanol] | 1000 to 10000
